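48-hour exposure; five concentrations; linearly interpolated endpoints. GI50 = concentration required for 50% inhibition of growth.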 The source made the active and inactive calls. No stated cut-off is given here; in the data, active = GI50 up to about 1.1 µM and inactive = higher.
Legend:
Assay in all cases: NCI anticancer screen, dose series, 48 h
[1] = tested on: 786-0
[2] = tested on: ACHN
[3] = tested on: BT-549
[4] = tested on: HCT-15
[5] = tested on: Hs-578T
[6] = tested on: MCF7
[7] = tested on: MOLT-4
[8] = tested on: NCI-H226
[9] = tested on: NCI-H522
[10] = tested on: OVCAR-5
[11] = tested on: OVCAR-8
[12] = tested on: SK-MEL-2
[13] = tested on: SK-MEL-5
[14] = tested on: SK-OV-3
[15] = tested on: TK-10
[16] = tested on: UACC-257
[17] = tested on: UO-31
[18] = tested on: HCC 2998
[19] = tested on: NCI/ADR-RES
[20] = tested on: RPMI-8226

Row | SMILES | GI50 [1] | GI50 [2] | GI50 [3] | GI50 [4] | GI50 [5] | GI50 [6] | GI50 [7] | GI50 [8] | GI50 [9] | GI50 [10] | GI50 [11] | GI50 [12] | GI50 [13] | GI50 [14] | GI50 [15] | GI50 [16] | GI50 [17] | GI50 [18] | GI50 [19] | GI50 [20]
1 | CCCCC1C=Cn2c(=O)oc3c(OC(C)C)c(OC(C)C)c(O)c1c32 (stereo not given) | 20 µM (inactive) | 36.6 µM (inactive) | 14.3 µM (inactive) | 14.6 µM | 18.3 µM (inactive) | 12.2 µM (inactive) | 6.1 µM (inactive) | 14 µM (inactive) | 11.6 µM (inactive) | 17.2 µM (inactive) | 14.9 µM (inactive) | 15.3 µM (inactive) | 14.7 µM (inactive) | 25.2 µM (inactive) | 16.3 µM (inactive) | 15.6 µM (inactive) | 13.6 µM (inactive) |  |  | 
2 | O=C(OCC1CCCN2CCCCC12)c1ccncc1 (stereo not given) | > 100 µM (inactive) | > 100 µM (inactive) | > 100 µM (inactive) | > 100 µM | > 100 µM (inactive) | > 100 µM (inactive) | > 100 µM (inactive) | > 100 µM (inactive) |  | > 100 µM (inactive) | > 100 µM (inactive) | > 100 µM (inactive) | > 100 µM (inactive) | > 100 µM (inactive) | > 100 µM (inactive) | > 100 µM (inactive) | > 100 µM (inactive) | > 100 µM (inactive) | > 100 µM (inactive) | > 100 µM (inactive)
3 | CC(=O)NNC1=NN(C(C)=O)C2(S1)C(=O)Nc1ccc(C)cc12 (stereo not given) | 84.1 µM (inactive) | 34.2 µM (inactive) | 47.8 µM (inactive) | 50 µM | 26.4 µM (inactive) | 58.7 µM (inactive) | > 100 µM (inactive) | > 100 µM (inactive) | 42 µM (inactive) | > 100 µM (inactive) | 83.6 µM (inactive) |  | 68.5 µM (inactive) |  | 38.5 µM (inactive) | > 100 µM (inactive) | 32.4 µM (inactive) | 47.1 µM (inactive) | > 100 µM (inactive) | 34.8 µM (inactive)
4 | CC(C)(C)C1CCC2c3c([nH]c4ccccc34)C3C(=O)N(c4cc(Cl)ccc4Cl)C(=O)C3C2C1 (stereo not given) | > 100 µM (inactive) | > 100 µM (inactive) | > 100 µM (inactive) | > 100 µM | 45.5 µM (inactive) | > 100 µM (inactive) | > 100 µM (inactive) | > 100 µM (inactive) |  | > 100 µM (inactive) | 52.6 µM (inactive) | > 100 µM (inactive) | > 100 µM (inactive) | > 100 µM (inactive) | > 100 µM (inactive) | > 100 µM (inactive) | > 100 µM (inactive) | > 100 µM (inactive) | > 100 µM (inactive) | > 100 µM (inactive)
5 | O=[N+]([O-])c1cccc(-c2ncc3c(n2)-c2ccccc2C3)c1 | 22.9 µM (inactive) | > 100 µM (inactive) | > 100 µM (inactive) | > 100 µM | 32.9 µM (inactive) | > 100 µM (inactive) | > 100 µM (inactive) | > 100 µM (inactive) | 24.7 µM (inactive) | > 100 µM (inactive) | > 100 µM (inactive) | > 100 µM (inactive) | > 100 µM (inactive) | > 100 µM (inactive) | 47.1 µM (inactive) | > 100 µM (inactive) | > 100 µM (inactive) |  | > 100 µM (inactive) | > 100 µM (inactive)
6 | C/C(=N\NC(N)=S)c1ccccn1.OB(O)c1ccccc1 | 3.73 µM (inactive) | 2.04 µM (inactive) | 8.15 µM (inactive) | 2.84 µM | > 100 µM (inactive) | 4.55 µM (inactive) | 2.07 µM (inactive) | 6.12 µM (inactive) | 1.8 µM (inactive) | 6.05 µM (inactive) | 3.63 µM (inactive) |  | 4.63 µM (inactive) | 5.57 µM (inactive) | 14 µM (inactive) | 4.47 µM (inactive) | 2.39 µM (inactive) | 4.36 µM (inactive) | 3.7 µM (inactive) | 5.87 µM (inactive)
7 | CC(=O)O[C@H]1C(=O)[C@@]2(C)[C@H]([C@H](OC(=O)c3cccc(C(F)(F)F)c3)[C@]3(O)C[C@H](OC(=O)[C@H](O)[C@@H](NC(=O)c4ccccc4)c4ccccc4)C(C)=C1C3(C)C)[C@]1(OC(C)=O)CO[C@@H]1C[C@@H]2O | 0.00439 µM (active) | 0.377 µM (active) | 0.035 µM (active) | 0.268 µM | < 0.0025 µM (active) | < 0.0025 µM (active) | 0.00427 µM (active) | 0.00946 µM (active) | < 0.0025 µM (active) | 0.00475 µM (active) | 0.00252 µM (active) |  | < 0.0025 µM (active) | 0.0288 µM (active) | 0.175 µM (active) | 0.108 µM (active) | 0.918 µM (active) | 0.0111 µM (active) | 1.4 µM (inactive) | < 0.0025 µM (active)

Reference: ChEMBL document CHEMBL1201862, “PubChem BioAssay data set” (2004)
